Non-standard residues stand in square brackets, D forms with d. Residues, ends and D or L forms follow the SMILES beside them. *: point of attachment. CH3O(CH2CH2O)7C2H4CO = COCCOCCOCCOCCOCCOCCOCCOCCC(=O)*; PEG10 = NCCOCCOCCOCCOCCOCCOCCOCCOCCOCCOCCC(=O)O; Phe(4-Br) = N[C@@H](Cc1ccc(Br)cc1)C(=O)O; Fmoc = O=C(OCC1c2ccccc2-c2ccccc21)*; αMeR = C[C@](N)(CCCNC(=N)N)C(=O)O; NMeL = CN[C@@H](CC(C)C)C(=O)O; PEG3 = NCCOCCOCCOCCC(=O)O; Nle = CCCC[C@H](N)C(=O)O; Aib = CC(C)(N)C(=O)O
What was measured:
[1] = Half life in human plasma at 400 uM by HPLC analysis; format: ADME, cell-free
Apelin receptor [2] = molecular target: T1, Apelin receptor (Homo sapiens, UniProt P35414); test: Activation of APJ receptor (unknown origin) expressed in Chem-5 cells assessed as stimulation of Ca2+ mobilization by Calcium 6-GF dye based fluorescence based assay; format: functional, cell-based
T1 sequence (P35414 whole entry): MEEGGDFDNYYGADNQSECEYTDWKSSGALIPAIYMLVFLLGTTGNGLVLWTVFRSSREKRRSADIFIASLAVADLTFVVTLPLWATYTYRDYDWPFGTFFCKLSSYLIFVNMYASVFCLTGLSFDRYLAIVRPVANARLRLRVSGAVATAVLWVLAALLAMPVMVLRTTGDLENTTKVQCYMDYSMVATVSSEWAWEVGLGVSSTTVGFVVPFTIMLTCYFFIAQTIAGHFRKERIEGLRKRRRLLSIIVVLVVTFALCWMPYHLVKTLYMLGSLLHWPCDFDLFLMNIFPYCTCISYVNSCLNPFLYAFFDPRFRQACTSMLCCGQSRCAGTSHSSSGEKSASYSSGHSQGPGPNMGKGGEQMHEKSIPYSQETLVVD

Apelin receptor [3] = molecular target: T2, Apelin receptor (Rattus norvegicus, UniProt Q9JHG3); test: Displacement of [125I]-pyr-1-apelin-13 from EGFP-tagged wild-type rat apelin receptor expressed in CHO cell membranes by gamma counting method; parameters: species or system Cell membrane
T2 sequence (Q9JHG3 whole entry): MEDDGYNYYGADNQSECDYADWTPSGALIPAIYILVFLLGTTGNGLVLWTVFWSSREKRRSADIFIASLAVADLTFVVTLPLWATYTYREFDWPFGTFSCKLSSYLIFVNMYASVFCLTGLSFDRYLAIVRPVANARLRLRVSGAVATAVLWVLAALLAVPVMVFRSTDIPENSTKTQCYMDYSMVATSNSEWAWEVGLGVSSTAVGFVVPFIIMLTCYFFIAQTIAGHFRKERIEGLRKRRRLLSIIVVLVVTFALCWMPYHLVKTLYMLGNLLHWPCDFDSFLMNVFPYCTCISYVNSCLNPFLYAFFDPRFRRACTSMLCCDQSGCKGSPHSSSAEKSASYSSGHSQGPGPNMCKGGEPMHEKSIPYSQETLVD

Mus musculus = test: Cardioprotective activity in C57BL/6 mouse assessed as reduction in mean arterial blood pressure at 1.4 uM/kg, iv measured after 15 mins relative to control; format: functional; settings: 0.25 h

SMILES | half-life at 400 µM [1] [h] | EC50 (Apelin receptor [2]) [nM] | IC50 (Apelin receptor [3]) [nM] | Activity (Mus musculus) [mmHg]
CCCC[C@H](NC(=O)[C@@H]1CCCN1C(=O)CNC(=O)[C@H](CCCCN)NC(=O)[C@H](Cc1c[nH]cn1)NC(=O)[C@H](CO)NC(=O)[C@H](CC(C)C)N(C)C(=O)[C@H](CCCNC(=N)N)NC(=O)[C@@H]1CCCN1C(=O)[C@H](CCCNC(=N)N)NC(=O)[C@H](CCC(N)=O)NC(=O)CCOCCOCCOCCOCCOCCOCCNC(=O)OCC1c2ccccc2-c2ccccc21)C(=O)NC(C)(C)C(=O)N[C@@H](Cc1ccc(Br)cc1)C(=O)O | 6.9 | 49 | 3.02 | 9
CCCC[C@H](NC(=O)[C@@H]1CCCN1C(=O)CNC(=O)[C@H](CCCCN)NC(=O)[C@H](Cc1c[nH]cn1)NC(=O)[C@H](CO)NC(=O)[C@H](CC(C)C)N(C)C(=O)[C@H](CCCNC(=N)N)NC(=O)[C@@H]1CCCN1C(=O)[C@H](CCCNC(=N)N)NC(=O)[C@H](CCC(N)=O)NC(=O)CCOCCOCCOCCOCCOCCOCCOCCOCCOCCOCCNC(=O)OCC1c2ccccc2-c2ccccc21)C(=O)NC(C)(C)C(=O)N[C@@H](Cc1ccc(Br)cc1)C(=O)O | 8.6 | > 200 | 1.91 | 1
CCCC[C@H](NC(=O)[C@@H]1CCCN1C(=O)CNC(=O)[C@H](CCCCN)NC(=O)[C@H](Cc1c[nH]cn1)NC(=O)[C@H](CO)NC(=O)[C@H](CC(C)C)N(C)C(=O)[C@H](CCCNC(=N)N)NC(=O)[C@@H]1CCCN1C(=O)[C@H](CCCNC(=N)N)NC(=O)[C@H](CCC(N)=O)NC(=O)[C@H](CCCNC(=N)N)NC(=O)[C@H](CCCNC(=N)N)NC(=O)[C@H](Cc1ccccc1)NC(=O)[C@H](CCCCN)NC(=O)CCOCCOCCOCCOCCOCCOCCOCCOC)C(=O)NC(C)(C)C(=O)N[C@@H](Cc1ccc(Br)cc1)C(=O)O ({CH3O(CH2CH2O)7C2H4CO}-KFRRQRPR[NMeL]SHKGP[Nle][Aib][Phe(4-Br)]-OH) | 0.7 | 8.13 | 1.7 | 30
CCCC[C@H](NC(=O)[C@@H]1CCCN1C(=O)CNC(=O)[C@H](CCCCN)NC(=O)[C@H](Cc1c[nH]cn1)NC(=O)[C@H](CO)NC(=O)[C@H](CC(C)C)N(C)C(=O)[C@H](CCCNC(=N)N)NC(=O)[C@@H]1CCCN1C(=O)[C@H](CCCNC(=N)N)NC(=O)[C@H](CCC(N)=O)NC(=O)[C@](C)(CCCNC(=N)N)NC(=O)[C@H](CCCNC(=N)N)NC(=O)[C@H](Cc1ccccc1)NC(=O)[C@@H](N)CCCCN)C(=O)NC(C)(C)C(=O)N[C@@H](Cc1ccc(Br)cc1)C(=O)O (H-KFR[αMeR]QRPR[NMeL]SHKGP[Nle][Aib][Phe(4-Br)]-OH) | 7.1 | 2.4 | 1 | 18
CCCC[C@H](NC(=O)[C@@H]1CCCN1C(=O)CNC(=O)[C@H](CCCCN)NC(=O)[C@H](Cc1c[nH]cn1)NC(=O)[C@H](CO)NC(=O)[C@H](CC(C)C)N(C)C(=O)[C@H](CCCNC(=N)N)NC(=O)[C@@H]1CCCN1C(=O)[C@H](CCCNC(=N)N)NC(=O)[C@H](CCC(N)=O)NC(=O)[C@H](CCCNC(=N)N)NC(=O)[C@H](CCCNC(=N)N)NC(=O)[C@H](Cc1ccccc1)NC(=O)[C@H](CCCCN)NC(=O)CCOCCOCCOCCNC(=O)OCC1c2ccccc2-c2ccccc21)C(=O)NC(C)(C)C(=O)N[C@@H](Cc1ccc(Br)cc1)C(=O)O ({Fmoc-PEG3}-KFRRQRPR[NMeL]SHKGP[Nle][Aib][Phe(4-Br)]-OH) | 2 | 17 | 2.51 | 32
CCCC[C@H](NC(=O)[C@@H]1CCCN1C(=O)CNC(=O)[C@H](CCCCN)NC(=O)[C@H](Cc1c[nH]cn1)NC(=O)[C@H](CO)NC(=O)[C@H](CC(C)C)N(C)C(=O)[C@H](CCCNC(=N)N)NC(=O)[C@@H]1CCCN1C(=O)[C@H](CCCNC(=N)N)NC(=O)[C@H](CCC(N)=O)NC(=O)[C@H](CCCNC(=N)N)NC(=O)[C@H](CCCNC(=N)N)NC(=O)[C@H](Cc1ccccc1)NC(=O)[C@H](CCCCN)NC(=O)CCOCCOCCOCCOCCOCCOCCOCCOCCOCCOCCNC(=O)OCC1c2ccccc2-c2ccccc21)C(=O)NC(C)(C)C(=O)N[C@@H](Cc1ccc(Br)cc1)C(=O)O ({Fmoc-PEG10}-KFRRQRPR[NMeL]SHKGP[Nle][Aib][Phe(4-Br)]-OH) | 17.2 | 4.9 | 2.4 | 28
